Measurements reported in ChEMBL document CHEMBL1201862, “PubChem BioAssay data set” (2004).
The source made the active and inactive calls.

How the values were obtained:
[1] = NIH-3T3 fibroblast cytotoxicity, dose response, cytotoxicity control, cell-based, fluorescence, Alamar Blue, secondary assay (AID 2327); type: functional;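 note: NIH-3T3 mouse fibroblasts cultured with fluconazole at 8 µg/mL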
[2] = fluconazole-exposed Candida albicans growth modulators – fluorescence, retest, confirmation (AID 2467); type: functional, cell-based
[3] = Luminescence Cell-Based Dose Retest to Confirm Inhibitors of Cancer Stem Cells. [Related pubchem assays (depositor defined):AID2717, AID2721]; type: functional; details: Homo sapiens
[4] = molecular target: FAD-linked sulfhydryl oxidase ALR (Homo sapiens, UniProt P55789); test: ALR-catalysed DTT oxidation blockers – biochemical, H2O2 detection, luminescence, cherry-pick, dose response (AID 493248)
FAD-linked sulfhydryl oxidase ALR, sequence (P55789 whole entry): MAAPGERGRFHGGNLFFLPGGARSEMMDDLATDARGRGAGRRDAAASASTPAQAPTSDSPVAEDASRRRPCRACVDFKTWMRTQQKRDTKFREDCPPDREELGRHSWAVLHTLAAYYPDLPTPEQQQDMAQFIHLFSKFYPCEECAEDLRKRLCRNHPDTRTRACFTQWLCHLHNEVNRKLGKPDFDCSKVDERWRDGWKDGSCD

Cytochrome P450 2D6 = Cytochrome P450 2D6 (Homo sapiens, UniProt P10635);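 note: CYP2D6 member of a cytochrome P450 panel assay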
Cytochrome P450 2D6, sequence (P10635 whole entry): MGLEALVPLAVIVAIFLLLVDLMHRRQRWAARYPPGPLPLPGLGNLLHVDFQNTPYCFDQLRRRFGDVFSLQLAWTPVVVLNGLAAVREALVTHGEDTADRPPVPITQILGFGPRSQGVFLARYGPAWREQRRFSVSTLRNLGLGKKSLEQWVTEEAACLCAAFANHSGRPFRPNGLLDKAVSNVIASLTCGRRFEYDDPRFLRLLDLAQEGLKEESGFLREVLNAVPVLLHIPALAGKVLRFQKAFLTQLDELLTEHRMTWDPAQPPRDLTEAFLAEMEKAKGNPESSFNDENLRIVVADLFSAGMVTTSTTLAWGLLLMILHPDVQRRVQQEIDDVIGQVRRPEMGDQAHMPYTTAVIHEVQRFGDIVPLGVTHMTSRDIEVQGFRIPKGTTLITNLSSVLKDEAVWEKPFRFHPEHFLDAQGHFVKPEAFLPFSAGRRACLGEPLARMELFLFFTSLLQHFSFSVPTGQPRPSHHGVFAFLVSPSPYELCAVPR

[5] = molecular target: T1, Calpain-2 catalytic subunit (Sus scrofa, UniProt P43367); test: m-calpain protease blockers, concentration series – biochemical, fluorogenic peptide substrate, dose response (AID 1420); type: functional
T1 sequence (P43367 whole entry): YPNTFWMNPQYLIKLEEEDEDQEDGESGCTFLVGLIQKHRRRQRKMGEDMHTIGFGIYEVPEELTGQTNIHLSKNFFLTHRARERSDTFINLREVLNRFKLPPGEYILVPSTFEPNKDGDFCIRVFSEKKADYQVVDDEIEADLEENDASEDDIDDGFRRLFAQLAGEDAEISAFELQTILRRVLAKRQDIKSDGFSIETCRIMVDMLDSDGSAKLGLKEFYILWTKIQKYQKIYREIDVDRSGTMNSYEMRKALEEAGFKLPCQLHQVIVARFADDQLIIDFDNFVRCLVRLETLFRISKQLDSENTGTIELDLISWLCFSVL

Cytochrome P450 2C9 = Cytochrome P450 2C9 (Homo sapiens, UniProt P11712)
Cytochrome P450 2C9, sequence (P11712 whole entry): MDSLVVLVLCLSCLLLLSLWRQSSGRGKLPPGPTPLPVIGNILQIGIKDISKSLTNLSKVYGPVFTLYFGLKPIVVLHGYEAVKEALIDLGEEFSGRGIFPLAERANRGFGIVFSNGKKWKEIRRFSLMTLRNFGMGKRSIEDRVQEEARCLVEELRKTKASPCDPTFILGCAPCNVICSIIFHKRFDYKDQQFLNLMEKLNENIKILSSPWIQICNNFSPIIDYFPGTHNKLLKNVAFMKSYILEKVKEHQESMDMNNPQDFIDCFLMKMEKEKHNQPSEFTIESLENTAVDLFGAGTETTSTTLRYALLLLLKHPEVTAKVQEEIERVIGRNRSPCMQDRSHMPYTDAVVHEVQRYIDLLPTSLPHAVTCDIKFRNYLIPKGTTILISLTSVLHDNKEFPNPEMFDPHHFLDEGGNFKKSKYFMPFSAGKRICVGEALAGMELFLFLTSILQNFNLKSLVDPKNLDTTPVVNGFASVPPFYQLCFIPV

Cytochrome P450 1A2 = molecular target: T2, Cytochrome P450 1A2 (Homo sapiens, UniProt P05177);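 note: PubChem cytochrome P450 panel assay, CYP1A2 panel member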
T2 sequence (P05177 whole entry): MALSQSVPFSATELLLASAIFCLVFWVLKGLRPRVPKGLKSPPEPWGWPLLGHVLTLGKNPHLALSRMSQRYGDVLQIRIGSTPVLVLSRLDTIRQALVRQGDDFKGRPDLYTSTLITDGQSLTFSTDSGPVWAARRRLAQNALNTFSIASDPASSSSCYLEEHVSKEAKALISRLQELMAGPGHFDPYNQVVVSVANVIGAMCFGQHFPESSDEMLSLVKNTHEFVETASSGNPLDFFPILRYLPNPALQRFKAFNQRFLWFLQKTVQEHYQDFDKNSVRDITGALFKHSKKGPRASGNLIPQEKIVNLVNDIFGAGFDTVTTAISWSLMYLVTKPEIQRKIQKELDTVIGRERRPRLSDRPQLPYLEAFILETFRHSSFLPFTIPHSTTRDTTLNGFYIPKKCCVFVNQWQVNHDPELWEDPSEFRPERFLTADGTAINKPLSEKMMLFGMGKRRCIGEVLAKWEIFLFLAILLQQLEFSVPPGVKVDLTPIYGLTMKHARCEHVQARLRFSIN

INS1 = test: INS-1E survival protection against cytokine death – cell-based, luminescence, retest, dose response (AID 449756); type: functional; details: Rattus norvegicus;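 note: cell death triggered by IL-1 beta plus TNF-alpha plus IFN-gamma mixture; protective hits raise ATP signal compared with cytokine alone wells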
[6] = system: Streptococcus sp. 'group A'; test: Streptococcus pyogenes SK(-)GAS viability under kanamycin – luminescence, BacTiterGlo, confirmation, counter-screen for streptokinase expression inhibitor project, dose response (AID 1900); type: functional, organism-based
Streptococcus = test: GAS UMAA2166 growth inhibition – luminescence, BacTiterGlo, counter-screen for streptokinase expression inhibitor project, dose response (AID 1915); type: functional, organism-based;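 note: potency for reduction of bacterial viability or growth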
[7] = reduction of Shn3 3'UTR-driven luciferase in osteoblasts – cell-based, Clone20 osteoblasts, firefly luciferase, cherry-picked, dose response (AID 624132); type: functional;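 note: firefly luciferase luminescence from reporter carrying the Shn3 3'UTR in osteoblasts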
Cytochrome P450 3A4 = Cytochrome P450 3A4 (Homo sapiens, UniProt P08684);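 note: CYP3A4 tested as one member of a cytochrome P450 panel screen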
Cytochrome P450 3A4, sequence (P08684 whole entry): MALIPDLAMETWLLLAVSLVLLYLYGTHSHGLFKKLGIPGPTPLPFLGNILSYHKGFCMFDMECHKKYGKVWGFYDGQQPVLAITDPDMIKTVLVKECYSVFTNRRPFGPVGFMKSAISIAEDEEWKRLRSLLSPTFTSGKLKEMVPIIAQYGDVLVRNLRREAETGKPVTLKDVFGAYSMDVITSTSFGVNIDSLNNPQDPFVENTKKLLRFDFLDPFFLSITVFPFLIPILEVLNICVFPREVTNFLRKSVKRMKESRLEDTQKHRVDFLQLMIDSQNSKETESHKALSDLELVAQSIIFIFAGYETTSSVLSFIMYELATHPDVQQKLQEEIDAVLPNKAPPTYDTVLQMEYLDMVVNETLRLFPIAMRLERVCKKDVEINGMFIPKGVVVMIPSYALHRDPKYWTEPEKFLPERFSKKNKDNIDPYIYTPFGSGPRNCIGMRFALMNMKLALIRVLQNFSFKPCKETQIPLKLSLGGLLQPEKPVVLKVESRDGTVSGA

Streptokinase A = molecular target: T3, Streptokinase A (Streptococcus pyogenes serotype M1, UniProt P10520); test: viability-normalized secreted streptokinase activity reduction – plasminogen activation absorbance, OD405, dose response (AID 1914); type: functional, Streptococcus pyogenes M1 GAS;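 note: secreted streptokinase activity via plasminogen activation per viability signal from cell pellet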
T3 sequence (P10520 whole entry): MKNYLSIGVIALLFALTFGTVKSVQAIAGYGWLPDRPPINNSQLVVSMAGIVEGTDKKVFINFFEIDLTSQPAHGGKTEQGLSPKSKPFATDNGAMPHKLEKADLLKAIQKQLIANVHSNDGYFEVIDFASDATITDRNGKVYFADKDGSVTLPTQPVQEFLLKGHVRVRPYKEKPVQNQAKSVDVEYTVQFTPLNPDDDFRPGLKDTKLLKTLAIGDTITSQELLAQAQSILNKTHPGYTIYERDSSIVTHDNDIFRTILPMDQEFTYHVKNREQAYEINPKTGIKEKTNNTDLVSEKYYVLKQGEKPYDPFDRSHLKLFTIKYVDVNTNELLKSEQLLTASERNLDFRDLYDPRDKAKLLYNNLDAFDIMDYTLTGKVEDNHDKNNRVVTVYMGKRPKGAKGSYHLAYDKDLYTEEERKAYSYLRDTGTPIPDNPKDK

[8] = molecular target: Luciferin 4-monooxygenase (Photinus pyralis, UniProt P08659); test: inhibition of purified Photinus pyralis luciferase – biochemical, luminescence, dose response (AID 1891)
Luciferin 4-monooxygenase, sequence (P08659 whole entry): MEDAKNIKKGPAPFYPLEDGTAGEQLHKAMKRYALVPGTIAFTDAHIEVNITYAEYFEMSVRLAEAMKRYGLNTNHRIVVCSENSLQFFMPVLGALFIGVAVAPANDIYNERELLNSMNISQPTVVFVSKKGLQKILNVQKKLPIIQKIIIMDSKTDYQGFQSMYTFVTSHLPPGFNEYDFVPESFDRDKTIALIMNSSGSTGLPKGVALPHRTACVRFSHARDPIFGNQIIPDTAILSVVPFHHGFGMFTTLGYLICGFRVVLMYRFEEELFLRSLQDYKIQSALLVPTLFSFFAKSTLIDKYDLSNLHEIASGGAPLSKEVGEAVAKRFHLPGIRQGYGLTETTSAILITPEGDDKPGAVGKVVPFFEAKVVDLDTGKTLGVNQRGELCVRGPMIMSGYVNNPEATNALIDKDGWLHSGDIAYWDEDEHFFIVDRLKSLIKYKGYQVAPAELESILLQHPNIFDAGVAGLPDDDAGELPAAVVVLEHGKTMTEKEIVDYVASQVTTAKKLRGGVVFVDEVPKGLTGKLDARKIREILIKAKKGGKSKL

[9] = Luminescence Cell-Based Dose Confirmation HTS to Identify Inhibitors of Platelet Dense Granule Release. [Related pubchem assays: 1663 (Primary HTS), 1678 (Summary of Project)]; type: functional
Cytochrome P450 2C19 = Cytochrome P450 2C19 (Homo sapiens, UniProt P33261); test: Cytochrome panel assay with activity outcomes. Panel member name: p450-cyp2c19 Compounds with AC50 equal or less than 10 uM are considered active; type: functional; details: read-out: AC50
Cytochrome P450 2C19, sequence (P33261 whole entry): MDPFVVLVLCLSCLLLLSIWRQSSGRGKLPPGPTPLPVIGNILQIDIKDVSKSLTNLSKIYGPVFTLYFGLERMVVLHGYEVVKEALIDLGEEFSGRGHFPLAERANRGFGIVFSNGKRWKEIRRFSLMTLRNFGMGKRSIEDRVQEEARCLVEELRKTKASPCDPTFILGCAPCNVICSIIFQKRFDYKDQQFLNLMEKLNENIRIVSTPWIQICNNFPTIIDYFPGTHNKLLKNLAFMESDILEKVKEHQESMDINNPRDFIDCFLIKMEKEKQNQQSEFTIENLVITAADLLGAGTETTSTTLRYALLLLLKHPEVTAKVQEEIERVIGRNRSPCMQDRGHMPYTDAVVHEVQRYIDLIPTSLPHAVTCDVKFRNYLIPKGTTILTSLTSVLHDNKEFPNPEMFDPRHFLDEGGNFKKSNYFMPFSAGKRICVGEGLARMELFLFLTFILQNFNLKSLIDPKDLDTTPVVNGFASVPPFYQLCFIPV

[10] = molecular target: T4, Heat shock factor protein 1 (Mus musculus, UniProt P38532); test: enhancement of HSF1-driven luciferase signal – cell-based, NIH3T3, luminescence, dose retest, confirmation (AID 435004); type: functional;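 note: stress induced by proteasome inhibitor MG132 added 30 min after compound; luciferase reporter driven by HSF1 response element in NIH3T3 cells; actives raise luminescence as potentiators of the MG132 stress response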
T4 sequence (P38532 whole entry): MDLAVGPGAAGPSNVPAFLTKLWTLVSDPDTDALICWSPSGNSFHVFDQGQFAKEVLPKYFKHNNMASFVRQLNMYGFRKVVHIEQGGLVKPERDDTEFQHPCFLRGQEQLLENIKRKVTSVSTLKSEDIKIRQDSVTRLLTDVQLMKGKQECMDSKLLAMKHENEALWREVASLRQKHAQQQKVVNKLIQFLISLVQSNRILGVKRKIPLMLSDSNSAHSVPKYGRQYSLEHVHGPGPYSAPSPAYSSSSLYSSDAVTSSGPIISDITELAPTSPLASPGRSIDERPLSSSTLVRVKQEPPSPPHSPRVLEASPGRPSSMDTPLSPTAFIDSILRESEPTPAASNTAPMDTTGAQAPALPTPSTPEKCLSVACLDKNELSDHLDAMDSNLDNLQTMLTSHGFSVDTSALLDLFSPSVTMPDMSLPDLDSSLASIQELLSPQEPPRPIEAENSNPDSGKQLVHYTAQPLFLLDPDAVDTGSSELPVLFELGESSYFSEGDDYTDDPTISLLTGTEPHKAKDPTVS

[11] = P. falciparum Dd2 growth inhibitors, dose response, SYBR Green, cherry-picked samples (AID 1159567); type: functional, cell-based

NCC(c1ccc(Cl)cc1Cl)c1c[nH]c2ccccc12 (configuration not stated)
EC50 [1]: 26.2 µM (active)
EC50 [2]: > 38 µM (not active)
AC50 [3]: 8.89 µM (active)

Cc1cc(NC(=O)C2CCCN(S(=O)(=O)c3c[nH]cn3)C2)ccc1Br (configuration not stated)
AC50 [4]: 69.2 µM (active)

CCN(CC)c1ccc(C2CC(=O)Nc3cc(OC)c(OC)cc32)cc1 (configuration not stated)
AC50 [4]: 2.47 µM (active)

COc1ccc2[nH]cc(CCNc3ccnc(-c4ccc(C(=O)N(C)C)cc4)n3)c2c1
AC50 (Cytochrome P450 2D6): 25.1 µM (inconclusive)

c1csc(CN2CC[C@@]3(CCCNC3)C2)n1
AC50 (Cytochrome P450 2D6): 12.6 µM (inconclusive)

COc1ccc(N2CCN(C(=O)NCc3ccc(OC)c(OC)c3)CC2)cc1
AC50 [4]: 5.76 µM (active)

CC(C)(C)OC(=O)NCCCC[C@H](NC(=O)c1nc[nH]c1C(=O)N[C@@H](CCCCNC(=O)OC(C)(C)C)C(=O)OC(C)(C)C)C(=O)OC(C)(C)C
IC50 [5]: 3.89 µM (not active)

CN=C(S)NNC(=O)c1ccccc1F
IC50 [5]: 17.7 µM (not active)

CC(C)c1cc(C(N)=O)c(NC(=O)C2CCC2)s1
AC50 [4]: 9.12 µM (active)

CCOC(=O)c1ccccc1NC(=O)c1cccc([N+](=O)[O-])c1
EC50 [1]: > 150 µM (inactive)
EC50 [2]: > 38 µM (not active)

CN(C)c1ccc(-c2nc(Nc3ccncc3)c3ccccc3n2)cc1
AC50 (Cytochrome P450 2D6): 25.1 µM (inconclusive)
AC50 (Cytochrome P450 2C9): 794 nM (inconclusive)

COc1cccc(N2CCN(Cc3cccnc3)CC2)c1
AC50 [4]: 10.3 µM (active)

Cc1ccc(Nc2nc(-c3sc(NC(=O)c4ccc([N+](=O)[O-])cc4)nc3C)cs2)cc1
AC50 (Cytochrome P450 2D6): 0.01 µM (inconclusive)
AC50 (Cytochrome P450 1A2): 2.24 µM (inconclusive)

O=C(Oc1c(CN2CCOCC2)cc(Cl)c2cccnc12)c1ccccc1
EC50 [1]: > 150 µM (inactive)
EC50 [2]: 3.71 µM (active)
AC50 (INS1): 4.16 µM (active)

CCN(CC)C(=S)Sc1c(O)nc2ccc(Cl)cc2c1-c1ccccc1
EC50 [6]: 831 nM (active)
EC50 (Streptococcus): 1.8 µM (active)
AC50 [7]: 27 µM (active)

CN(C)c1ccc(-c2nc(NC3CCNCC3)c3ccccc3n2)cc1
AC50 (Cytochrome P450 2D6): 39.8 µM (inconclusive)
AC50 (Cytochrome P450 3A4): 31.6 µM (inconclusive)

O=C(NCc1cccnc1)C(=O)NCC(c1ccco1)N1CCN(c2ccc(F)cc2)CC1 (configuration not stated)
AC50 [4]: 6.41 µM (active)

Cc1cc(C)c(C(=O)COC(=O)CCNS(=O)(=O)c2c(Cl)cccc2Cl)cc1C
IC50 [5]: 4.97 µM (not active)

O=C(N/N=C1/CC/C(=N/NC(=O)c2cccnc2)CC1)c1cccnc1
AC50 [4]: 0.879 µM (active)

Cn1c(N)c(C(=O)COC(=O)CCC2CCCCC2)c(=O)n(C)c1=O
IC50 [5]: 5.23 µM (active)

CCc1c(C)c2cc(Cl)c(O)c(CN3CCCCC3)c2oc1=O
AC50 [4]: 9.26 µM (active)

CCCCC(CC)C(=O)Oc1ccc(O)c(C(C)(C)C)c1 (configuration not stated)
EC50 [6]: 3200 nM (active)
EC50 (Streptokinase A): 4.96 µM (active)
IC50 [5]: 13.5 µM (not active)
EC50 (Streptococcus): 7.84 µM (active)

CCC(=O)N1CCc2cc(S(=O)(=O)NCCC(=O)N3CCN(c4cccc(C)c4)C(C)C3)ccc21 (configuration not stated)
AC50 [4]: 72.4 µM (active)

O=C(NCC1CC1)Nc1cccs1
AC50 [4]: 4.97 µM (active)

COc1cc(N/C=C(\C(C)=O)c2ccccc2)cc(OC)c1
IC50 [5]: > 50 µM (not active)

CCCn1c(N)c(C(=O)COC(=O)c2c(C)noc2C)c(=O)n(C)c1=O
EC50 [1]: > 150 µM (inactive)
EC50 [2]: > 38 µM (not active)

COC(=O)c1c(C(=O)OC)c(-c2ccc(Cl)c(Cl)c2)n2c1CCC2
EC50 [1]: > 160 µM (inactive)
EC50 [2]: > 38 µM (not active)

Cc1cc(NC(=O)c2ccccc2Cl)no1
EC50 [8]: > 112 µM (not active)
EC50 [9]: > 112 µM (not active)
AC50 (Cytochrome P450 2C19): 14.1 µM (inconclusive)
AC50 (Cytochrome P450 1A2): 31.6 µM (inconclusive)

Cc1nc(Nc2ccccc2)sc1C(=O)c1ccccc1
IC50 [5]: 3.41 µM (not active)

CCn1c(S)nnc1CN1C(=O)CSc2ccccc21
AC50 [4]: 1.85 µM (active)

O=C1CCC(c2ccccc2)=NN1c1nc2ccccc2s1
AC50 (Cytochrome P450 2D6): 3.98 µM (inconclusive)
AC50 (Cytochrome P450 2C9): 3980 nM (inconclusive)

COc1ccc(CNc2nc(-c3ccc4c(c3)OCO4)nc3ccccc23)c(OC)c1
AC50 (Cytochrome P450 2D6): 12.6 µM (inconclusive)
AC50 (Cytochrome P450 2C9): 501 nM (inconclusive)

COC(=O)N1CCN(C(=O)Cc2ccc(Cl)c(Cl)c2)[C@H](CN2CCCC2)C1
AC50 (Cytochrome P450 2D6): 20 µM (inconclusive)

S=C(NCc1ccco1)N/N=C/c1ccc(Cl)cc1
IC50 [5]: 6.94 µM (not active)
EC50 [10]: > 260 µM (inactive)

CC(=O)N/N=C/c1cc(C)n(-c2ccc(Br)cc2)c1C
AC50 [4]: 0.414 µM (active)

O=C(N/N=C\c1cccc(Br)c1)c1ccccc1-n1cccc1
IC50 [5]: > 50 µM (not active)

CO[C@H]1CN(C)C(=O)c2ccc(NC(=O)Nc3cc(F)ccc3F)cc2OC[C@@H](C)N(C)C[C@H]1C
AC50 [11]: 11.4 µM (active)

C[C@H](CO)N1C[C@H](C)[C@H](CN(C)S(=O)(=O)c2ccccc2F)OCc2ccccc2-c2c(n(C)c3ccccc23)C1=O
AC50 [11]: 3.61 µM (active)

C[C@H]1CN([C@@H](C)CO)S(=O)(=O)c2ccc(C#Cc3ccncc3)cc2O[C@H]1CN(C)S(=O)(=O)c1ccc(F)cc1
AC50 [11]: 4.11 µM (active)

COc1ccc2c3c([nH]c2c1)[C@@H](CO)N(Cc1cccc(F)c1)CC31CCN(C(C)=O)CC1
AC50 [11]: 5.78 µM (active)

COc1ccc(S(=O)(=O)N(C)C[C@H]2Oc3c(NC(=O)Nc4ccc5c(c4)OCO5)cccc3C(=O)N([C@@H](C)CO)C[C@H]2C)cc1
AC50 [11]: 4.41 µM (active)
